Measured values taken from PubChem BioAssay AID228 (DTP/NCI, 2004).
Values joined by “and” are separate entries in the source; they are usually repeats but may differ in a detail not shown here. Equal values may be shown once. Records with an inconclusive call do not appear.

System: BDF1 mice, Friend leukemia sc, tumor weight T/C
Test: NCI In Vivo Anticancer Drug Screen. Data for tumor model Friend Virus Leukemia (Solid) (subcutaneous) in B6D2F1 (BDF1) mice
Conditions: endpoint: mean tumor weight, schedule: Q01DX011 (ip), higher = larger tumour
Protocol: The antitumor activity of compounds was measured in mice bearing transplantable tumors. Survival or tumor size were measured and the results are expressed as the measurement made in the treated group (T) divided by the measurement made in the vehicle treated control group (C). The tumor model used in this assay is Friend Virus Leukemia (Solid) (subcutaneous) in B6D2F1 (BDF1) mice

[1] = dose: 0.5 mg/kg/injection, vehicle: carboxymethylcellulose (CMC)
[2] = dose: 1.0 mg/kg/injection, vehicle: carboxymethylcellulose (CMC)
[3] = dose: 3.0 mg/kg/injection, vehicle: carboxymethylcellulose (CMC)
[4] = dose: 0.38 mg/kg/injection, vehicle: carboxymethylcellulose (CMC)
[5] = dose: 0.75 mg/kg/injection, vehicle: carboxymethylcellulose (CMC)
[6] = dose: 1.5 mg/kg/injection, vehicle: carboxymethylcellulose (CMC)
[7] = dose: 6.0 mg/kg/injection, vehicle: carboxymethylcellulose (CMC)
[8] = dose: 5.0 mg/kg/injection, vehicle: saline
[9] = dose: 10.0 mg/kg/injection, vehicle: saline
[10] = dose: 15.0 mg/kg/injection, vehicle: saline
[11] = dose: 4.0 mg/kg/injection, vehicle: carboxymethylcellulose (CMC)
[12] = dose: 2.0 mg/kg/injection, vehicle: carboxymethylcellulose (CMC)

In the case of `Nc1ncnc2c1ccn2C1OC(CO)C(O)C1O` (configuration not stated), the T/C (dose: 0.6 mg/kg/injection, vehicle: carboxymethylcellulose (CMC)) is reported as 104 % of control and the T/C (dose: 1.25 mg/kg/injection, vehicle: carboxymethylcellulose (CMC)) is reported as 72 % of control.

With `CC(=O)N(C)C` the T/C (dose: 250.0 mg/kg/injection, vehicle: saline) was 113 % of control.

For `Cn1cnc([N+](=O)[O-])c1Sc1nc(N)nc2c1ncn2C1OC(CO)C(O)C1O` (configuration not stated), the T/C (dose: 0.25 mg/kg/injection, vehicle: carboxymethylcellulose (CMC)) was 73 % of control, the T/C [1] was 61 % of control and the T/C [2] was 31 % of control and 32 % of control. The T/C [3] was 10 % of control and 24 % of control and the T/C (dose: 7.0 mg/kg/injection, vehicle: carboxymethylcellulose (CMC)) was 5 % of control.

For `CCN(CC)CCNc1ccc([N+](=O)[O-])c2sc3ccccc3c(=O)c12`, the T/C (dose: 20.0 mg/kg/injection, vehicle: saline) was 87 % of control and the T/C (dose: 40.0 mg/kg/injection, vehicle: saline) was 110 % of control.

In the case of `[I][Hg][CH2]C1COCC([CH2][Hg][I])O1.[I][Hg][CH2]C1COCC([CH2][Hg][I])O1` (configuration not stated), the T/C (dose: 10.0 mg/kg/injection, vehicle: carboxymethylcellulose (CMC)) is reported as 75 % of control, the T/C (dose: 20.0 mg/kg/injection, vehicle: carboxymethylcellulose (CMC)) is reported as 56 % of control and the T/C (dose: 40.0 mg/kg/injection, vehicle: carboxymethylcellulose (CMC)) is reported as 77 % of control. For the same molecule, the T/C (dose: 80.0 mg/kg/injection, vehicle: carboxymethylcellulose (CMC)) was 45 % of control.

For `CC[C@]1(O)C[C@H]2CN(CCc3c([nH]c4ccccc34)[C@@](C(=O)OC)(c3cc4c(cc3OC)N(C)[C@H]3[C@@](O)(C(=O)OC)[C@H](OC(C)=O)[C@]5(CC)C=CCN6CC[C@]43[C@@H]65)C2)C1`, the T/C (dose: 0.12 mg/kg/injection, vehicle: carboxymethylcellulose (CMC)) was 103 % of control and the T/C (dose: 0.24 mg/kg/injection, vehicle: carboxymethylcellulose (CMC)) was 53 % of control.

For `NCCCC(NC(=O)CCCCCCCCN=C(N)N)C(O)CCCCCCCCN=C(N)N` (configuration not stated), the T/C [4] was 102 % of control, the T/C [5] was 82 % of control and the T/C [6] was 92 % of control. The T/C [3] was 96 % of control and the T/C [7] was 79 % of control.

With `Cc1cc(N(CCCl)CCCl)ccc1N=Nc1ccccc1C(=O)O` the T/C [8] was 111 % of control, the T/C (dose: 7.5 mg/kg/injection, vehicle: saline) was 111 % of control and the T/C [9] was 105 % of control. For the same molecule, the T/C [10] was 60 % of control and 73 % of control, the T/C (dose: 25.0 mg/kg/injection, vehicle: saline) was 21 % of control and the T/C (dose: 30.0 mg/kg/injection, vehicle: saline) was 20 % of control.

In the case of `N#CCSc1nc(N)nc2nc[nH]c12`, the T/C (dose: 31.25 mg/kg/injection, vehicle: carboxymethylcellulose (CMC)) is reported as 83 % of control, the T/C (dose: 62.5 mg/kg/injection, vehicle: carboxymethylcellulose (CMC)) is reported as 40 % of control and the T/C (dose: 125.0 mg/kg/injection, vehicle: carboxymethylcellulose (CMC)) is reported as 31 % of control.

`CC(C)CCSc1nc(N)nc2nc[nH]c12` was tested, and the T/C (dose: 11.0 mg/kg/injection, vehicle: carboxymethylcellulose (CMC)) was 59 % of control, the T/C (dose: 22.0 mg/kg/injection, vehicle: carboxymethylcellulose (CMC)) was 38 % of control and the T/C (dose: 45.0 mg/kg/injection, vehicle: carboxymethylcellulose (CMC)) was 18 % of control and 21 % of control. The T/C (dose: 90.0 mg/kg/injection, vehicle: carboxymethylcellulose (CMC)) was 7 % of control and 21 % of control and the T/C (dose: 180.0 mg/kg/injection, vehicle: carboxymethylcellulose (CMC)) was 5 % of control.

`O=[As]O` was tested, and the T/C (dose: 1.6 mg/kg/injection, vehicle: carboxymethylcellulose (CMC)) was 78 % of control, the T/C (dose: 3.25 mg/kg/injection, vehicle: carboxymethylcellulose (CMC)) was 77 % of control and the T/C (dose: 6.5 mg/kg/injection, vehicle: carboxymethylcellulose (CMC)) was 98 % of control. The T/C (dose: 13.0 mg/kg/injection, vehicle: carboxymethylcellulose (CMC)) was 46 % of control.

With `CC1CCC2(C(=O)O)CCC3(C)C(=CCC4C5(C)CCC(O)C(C)(C)C5CCC43C)C2C1C` (configuration not stated) the T/C (dose: 50.0 mg/kg/injection, vehicle: other) was 76 % of control, the T/C (dose: 100.0 mg/kg/injection, vehicle: other) was 69 % of control and the T/C (dose: 200.0 mg/kg/injection, vehicle: other) was 115 % of control.

For `CCCCSc1ncnc2nc[nH]c12`, the T/C (dose: 16.0 mg/kg/injection, vehicle: saline) was 101 % of control, the T/C (dose: 31.0 mg/kg/injection, vehicle: saline) was 121 % of control and the T/C (dose: 62.0 mg/kg/injection, vehicle: saline) was 99 % of control. The T/C (dose: 125.0 mg/kg/injection, vehicle: saline) was 62 % of control.

For `Nc1nc(SCc2ccccc2Cl)c2ncn(C3OC(CO)C(O)C3O)c2n1` (configuration not stated), the T/C [4] was 102 % of control, the T/C [5] was 70 % of control and the T/C [2] was 61 % of control. The T/C [6] was 83 % of control, the T/C [3] was 61 % of control and 68 % of control and the T/C [7] was 61 % of control and 68 % of control. For the same molecule, the T/C (dose: 12.0 mg/kg/injection, vehicle: carboxymethylcellulose (CMC)) was 16 % of control and 41 % of control, the T/C (dose: 25.0 mg/kg/injection, vehicle: carboxymethylcellulose (CMC)) was 10 % of control and 28 % of control and the T/C (dose: 50.0 mg/kg/injection, vehicle: carboxymethylcellulose (CMC)) was 2 % of control.

In the case of `CN(N=O)C(N)=O`, the T/C [11] is reported as 94 % of control and 95 % of control, the T/C [8] is reported as 53 % of control and the T/C (dose: 8.0 mg/kg/injection, vehicle: carboxymethylcellulose (CMC)) is reported as 98 % of control and 117 % of control. The T/C [9] was 31 % of control, the T/C [10] was 20 % of control and the T/C (dose: 16.0 mg/kg/injection, vehicle: carboxymethylcellulose (CMC)) was 46 % of control and 49 % of control. For the same molecule, the T/C (dose: 22.0 mg/kg/injection, vehicle: saline) was 22 % of control and the T/C (dose: 30.0 mg/kg/injection, vehicle: carboxymethylcellulose (CMC)) was 59 % of control.

With `[I][Hg][CH2]C1OCCOC1[CH2][Hg][I]` (configuration not stated) the T/C (dose: 18.0 mg/kg/injection, vehicle: carboxymethylcellulose (CMC)) was 66 % of control, the T/C (dose: 37.0 mg/kg/injection, vehicle: carboxymethylcellulose (CMC)) was 76 % of control and the T/C (dose: 75.0 mg/kg/injection, vehicle: carboxymethylcellulose (CMC)) was 46 % of control.

`O=P(N1CC1)(N1CC1)N1CC1` was tested, and the T/C [1] was 86 % of control, the T/C [2] was 83 % of control and the T/C [12] was 84 % of control and 88 % of control. For the same molecule, the T/C [11] was 25 % of control and 37 % of control.

For `C[C@H](N)C(=O)N[C@@H]1[C@H]2C(=C(O)C[C@@H](O)[C@@H]2O)C(=O)O[C@@H]1C`, the T/C (dose: 100.0 mg/kg/injection, vehicle: carboxymethylcellulose (CMC)) was 43 % of control, the T/C (dose: 200.0 mg/kg/injection, vehicle: carboxymethylcellulose (CMC)) was 48 % of control and the T/C (dose: 1000.0 mg/kg/injection, vehicle: carboxymethylcellulose (CMC)) was 17 % of control.

For `CCC[CH2][Sn]([CH2]CCC)([CH2]CCC)[O]C(=O)CC[S][Sn]([CH2]CCC)([CH2]CCC)[CH2]CCC`, the T/C [12] was 108 % of control and the T/C [11] was 82 % of control.

For `NC(CO)C(=O)O` (configuration not stated), the T/C (dose: 250.0 mg/kg/injection, vehicle: carboxymethylcellulose (CMC)) was 108 % of control and the T/C (dose: 500.0 mg/kg/injection, vehicle: carboxymethylcellulose (CMC)) was 112 % of control.
